Experimental data: patent US20100004443A1, “LINEAR PYRIDAZINE AND PYRROLE COMPOUNDS, METHOD FOR OBTAINING THEM AND APPLICATIONS” (CENTRE NATIONAL DE LA RECHERCHE SCIENTIFIQUE (C.N., priority 2006, published 2010)
Values after ≈ are worked out from the molar mass of the structure shown. Values joined by “and” are separate entries in the source; they are usually repeats but may differ in a detail not shown here. Equal entries are not always repeated.

Tests used:
KB cells = assay: Cytotoxicity on KB cells; format: cell-based
[1] = test system: KB, Caco, Huh7 and fibroblast cells; assay: in vitro cytotoxicity test on KB, Caco, Huh7 and fibroblast cells; format: cell-based
Description: Preferably, the cancer concerned by the invention is a carcinoma, for instance a carcinoma of the ear, nose or throat, of the lungs, of the uterus, of the digestive system (oesophagus, colon, liver), of the skin, of the breasts, of the prostate, of the ovaries, etc.

Leishmania mexicana = assay: Parasitology, Leishmania mexicana; format: cell-based; conditions: read-out: Parasitology IC50 or 80 Leishmania mexicana
Candida albicans = assay: Parasitology, Candida albicans; format: cell-based; conditions: read-out: Parasitology IC50 or 80 Candida albicans
Cytotoxicity on KB cells = format: cell-based; conditions: human, KB cells
tonB protein = tonB protein (Escherichia coli, UniProt P02929); assay: Effect on tonB protein (iron transfer for bacterial growth)
E. coli = assay: Inhibition of the growth of E. coli; format: cell-based
[2] = second value (cell beside the first)

Chain of tonB protein (P02929 whole entry): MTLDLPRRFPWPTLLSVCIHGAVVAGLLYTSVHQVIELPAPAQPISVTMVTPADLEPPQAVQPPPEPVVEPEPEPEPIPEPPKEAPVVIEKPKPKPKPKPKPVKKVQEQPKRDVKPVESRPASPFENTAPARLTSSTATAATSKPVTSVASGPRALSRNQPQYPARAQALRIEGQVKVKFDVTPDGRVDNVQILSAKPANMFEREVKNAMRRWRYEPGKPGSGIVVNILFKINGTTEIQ

SMILES | KB cells Cytotoxicity % inhibition à [10^−5] (KB cells; first value) [%] | KB cells Cytotoxicity % inhibition à [10^−5] (KB cells; [2]) [%] | cytotoxic activity in a cancerous cell model [1] | IC50 (Leishmania mexicana) | IC50 (Candida albicans) | IC50 (Cytotoxicity on KB cells) | IC50 (KB cells; Homo sapiens, KB, read-out: IC50 on KB cancerous cells) [µg/mL] | effect on the tonB protein (tonB protein) | inhibition of the growth of E. coli (E. coli)
S=c1ccc(-c2ccccn2)n[nH]1 [Compound 10, 6-(pyridin-2-yl)-2H-pyridazin-3-thione] | 84 | 74 | very high levels of cytotoxic activity | – | – | – | – | – | –
CCCCc1cc(-c2ccccn2)[nH]c1-c1ccccn1 [Compound 68] | 43 | – | – | – | – | – | – | – | –
Cc1cccc(-c2ccc(-c3ccc(-c4cccc(C)n4)nn3)nn2)n1 [Compound 2, 6,6′-bis(6-methylpyridin-2-yl)-3,3′-bipyridazine] | 23 | 12 | – | 2.2 µM and 0.91 µg/mL | 62 µM and 25.9 µg/mL | – | – | – | –
O=C(O)c1cccc(-c2ccc(-c3cccc(C(=O)O)n3)nn2)n1 [Compound 48, 3,6-bis(2-carboxypyridin-6-yl)-pyridazine] | 21 | – | – | 3 µM and 0.96 µg/mL | > 100 µM and ≥ 32.2 µg/mL | – | – | – | –
Cc1cccc(-c2ccc(-c3ccccn3)nn2)n1 [Compound 44, 3-(6-methylpyridin-2-yl)-6-(pyridin-2-yl)pyridazine] | 11 | 21 | very high levels of cytotoxic activity | < 1 µM and < 0.25 µg/mL | 600 nM and 0.15 µg/mL | – | – | – | –
O=C(O)c1cccc(-c2ccc(-c3ccccn3)nn2)n1 [Compound 45, 3-(2-carboxypyridin-6-yl)-6-(pyridin-2-yl)-pyridazine] | 9 | 3 | – | 14 µM and 3.9 µg/mL | > 100 µM | – | – | – | –
c1ccc(-c2ccc(-c3ccccn3)nn2)nc1 [Compound 80, 3,6-bispyridin-2-ylpyridazine] | – | – | very high levels of cytotoxic activity | – | – | – | – | – | –
c1ccc(-c2ccc(-c3ccc(-c4ccccn4)nn3)nn2)nc1 [Compound 19, 6,6′-bis(pyridin-2-yl)-3,3′-bipyridazine] | 16 | – | – | – | – | – | – | – | –
C=C(OCC)c1ccc(-c2ccc(C(=C)OCC)nn2)nn1 [Compound 24, 6,6′-di-(1-ethoxyvinyl)-3,3′-bipyridazine] | 96 | 95 | very high levels of cytotoxic activity | – | – | 1.23 µM and 0.37 µg/mL | 0.3 (≈ 1.01 µM) | affects the tonB protein | able to inhibit the growth of E. coli
